Publication PMC3759900, “Acetylcholinesterase Reactivators (HI-6, Obidoxime, Trimedoxime, K027, K075, K127, K203, K282): Structural Evaluation of Human Serum Albumin Binding and Absorption Kinetics” (International Journal of Molecular Sciences, 2013)

Legend:
[1] = target: Human Serum Albumin (HSA) (Homo sapiens, UniProt P02768); experiment: HSA binding by ultrafiltration (Centrifree) and HPLC; conditions: HSA 45 g/L in phosphate buffer saline, 90 min at 37 °C, mean of three independent measurements
Human Serum Albumin (HSA), sequence (P02768 25-609): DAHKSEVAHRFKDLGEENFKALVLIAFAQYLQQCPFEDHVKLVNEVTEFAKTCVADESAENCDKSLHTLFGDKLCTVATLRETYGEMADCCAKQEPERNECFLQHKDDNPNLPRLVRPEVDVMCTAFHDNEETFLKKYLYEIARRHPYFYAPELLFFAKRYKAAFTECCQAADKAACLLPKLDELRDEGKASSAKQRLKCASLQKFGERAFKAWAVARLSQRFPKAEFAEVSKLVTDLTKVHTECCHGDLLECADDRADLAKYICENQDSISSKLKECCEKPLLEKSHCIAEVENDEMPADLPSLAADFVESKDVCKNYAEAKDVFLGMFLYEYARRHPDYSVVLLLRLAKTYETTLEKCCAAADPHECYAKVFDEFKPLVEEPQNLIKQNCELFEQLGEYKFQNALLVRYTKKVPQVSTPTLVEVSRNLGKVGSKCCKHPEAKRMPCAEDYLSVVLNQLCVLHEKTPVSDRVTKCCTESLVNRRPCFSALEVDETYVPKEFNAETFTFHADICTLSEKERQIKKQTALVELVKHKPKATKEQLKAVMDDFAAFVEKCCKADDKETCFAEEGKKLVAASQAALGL

[2] = Pharmacokinetic study, plasma concentration after i.m. injection (HPLC); conditions: male Wister rats, description of plasma kinetic curves

Row | Compound | Binding to Human Serum Albumin (HSA) [1] | Elimination from blood (kinetic curve profile) [2]
1 | NC(=O)c1cc[n+](COC[n+]2ccccc2/C=N/O)cc1 [HI-6] | 1% | slow elimination from the blood
2 | NC(=O)c1cc[n+](CCC[n+]2ccc(/C=N/O)cc2)cc1 [K027] | 5% | 
3 | O/N=C/c1cc[n+](C/C=C/C[n+]2ccc(/C=N/O)cc2)cc1 [K075] | 10% | 
4 | NC(=O)c1cc[n+](CCOCC[n+]2ccc(C=NO)cc2)cc1 [K127] | 4% | 
5 | NC(=O)c1cc[n+](C/C=C/C[n+]2ccc(/C=N/O)cc2)cc1 [K203] | 15% | 
6 | ON=Cc1cc[n+](C/C=C\C[n+]2ccc(C=NO)cc2)cc1 [K282] | 12% | 
7 | O/N=C/c1cc[n+](COC[n+]2ccc(/C=N/O)cc2)cc1 [Obidoxime, obidoxime] |  | relatively fast elimination
8 | O/N=C/c1cc[n+](CCC[n+]2ccc(/C=N/O)cc2)cc1 [Trimedoxime, trimedoxime] | 6% | slow elimination from the blood
